One substance from patent US5770688A, “Method and composition for the treatment of mammalian HIV infection” (GSF-Forschungszentrum fur Umwelt und Gesundheit GmbH, priority 1989, dated 1998) can be followed below.

Data set [1] concerns KE37-1/111β (HIV-infected T-lymphoma cells). Kind of data set: MTT test, growth of HIV infected T-lymphoma cells. It is filed as cell-based. The protocol: The KE37-1 (uninfected) and KE37-1/111β (infected) cell lines discussed below are commercially available from the Dr. Robert Gallows Laboratory of the NIH in the United States of America and grown in a medium of RPMI 1640 (GIBCO) and further supplemented with 10% fetal calf serum which contained approximately 100 units of penicillin, 100 μg streptomycin, and approximately 0.25 μg fungizone (Amphotericin B) per milliliter. The human mesenchymal cell lines LC5 and LC5-HIV, discussed below, are deposited with the Collection De L'Institut Pasteur of Paris, France on Mar. 9, 1989 and given the accession numbers I-842 and I-843, respectively. The LC5 and LC5-HIV cell lines were grown in a medium of RPMI 1640 and supplemented with 10% fetal calf serum.
Referring more particularly to FIGS. 1-4, melittin (Seq. ID NO:1) and its specified analogues were tested for their effect on HIV-infected T-lymphoma cells. In this regard the following cell lines were employed in the testing: KE37-1 (uninfected) and KE37-1/111S (infected with HTLV-111β). These infected cells were incubated for a period of seven days under test conditions at a temperature of 37° C. and in the presence of 5% CO2. A culture medium of RPMI 1640 (GIBCO) was employed and was further supplemented with 10% fetal calf serum which contained approximately 100 units of penicillin, 100μ of streptomycin, and approximately 0.25μ fungizone (Amphotericin B) per milliliter. This equals 1 milliliter of antibiotic-antimycotic solution (GIBCO Catalogue No. 043-05240 per 100 ml. of medium.) After a one week incubation period in the presence of various concentrations of the above-identified substances, which were added fresh daily to the medium, the following tests were carried out with the cultures. A first test was conducted for purposes of determining the relative cell concentration as a function of the number of HIV infected cells present by employing an MTT test. […] The optical density (OD) of the solution was determined at=600 nm. […]

The nature of data set [2]: disappearance of melittin from culture medium / uptake by cells. Format: in vitro ADME. The text has this:
This means, in essence, that the effect of melittin (Seq. ID NO:1) on the virus is to attack the virus before it is released from an infected cell although it is possible that a reduction in virus numbers may be possible during and immediately after the addition of melittin to a cell culture or otherwise. […] At this point in time, melittin is absent from the culture. […] This observation excludes any effect in the experiments to be explained by a direct effect of melittin on "cell free" virus, that is, virus released into the supernatant.
These characteristics appear to be due to the specific structure of the melittin amphiphilic helix. […] In this regard, treatment was at cultivation start, and measurement of infectivity was seven days post treatment. As was discussed earlier, maximum virus concentration in cultures of this type is not achieved for five days after cultivation. As should be understood and the conclusions which the inventors have drawn from same is that if the reduced viral infectivity seven days post treatment were only due to direct effects of melittin on the virus, then in that event, the melittin or an active fragment would have to be present as late as five days post treatment. […] Moreover, and if the reduction and supernatant infectivity was partly due to reduced virus production as opposed to incorrect virus assembly or destruction of newly synthesized virion, then, in that event, this should be reflected by reduced amounts of viral proteins within the cells and/or in their supernatants of the melittin treated cultures. To determine whether this hypothesis is correct the inventors chose the P24 marker as a marker for viral protein production. […] However, following fourteen hours of incubation with melittin, there is a marked reduction of P24 within the cells as well as in the supernatant (down to 60%).

Take “Gly-Ile-Gly-Ala-Val-Leu-Lys-Val-Leu-Thr-Thr-Gly-Leu-Pro-Ala-Leu-Ile-Ser-Trp-Ile-Lys-Arg-Lys-Arg-Gln-Gln-Amide [melittin]”: in data set [1] (2.5 μg per ml), the “level of growth of the cells” value is listed as “appears not yet influenced”. In addition, the “selective toxicity/growth inhibition of HIV infected cells, in words” value in data set [1] (FIGS. 1-4) is on record as “appears to inhibit the growth of HIV infected cells selectively”. In addition, in data set [1] (KE37-1/111β, seven days incubation, 10080 min), the “concentration toxic to HIV infected cells” value is “above 5 μg per ml”. Besides, the “absorption by the cell” value in data set [2] (after introduction to the culture) is on record as “absorbed by the cell within hours after introduction to the culture”. In data set [2] (cell culture), this substance gave a half-life of melittin of 19 h. The “melittin in the medium” value in data set [2] (two hours after addition to the culture) is recorded as “not measurable in the medium two hours after addition to the culture”.
